Tested on: T1, D24 lipase
T1 construct: native extracellular lipase from culture supernatant, only partially purified (dialysed, 10 kDa cut-off concentrated)
Assay: spectrophotometric p-nitrophenyl palmitate hydrolysis, Lineweaver-Burk
Type: biochemical, Naganishia albida
Details: pH 5.6, 37 °C; partially purified native enzyme, free

Km: 0.158 µM
Compound: CCCCCCCCCCCCCCCC(=O)Oc1ccc([N+](=O)[O-])cc1 [p-nitrophenyl palmitate]

Reference: article PMC12165992, “Biochemical characterization of lipase from Cryptococcus albidus (D24) and its application in sugar fatty acid ester synthesis” (Archives of Microbiology, 2025)
